Experiments:
[1] = test system: synthesis of LTB4 in human whole blood; assay: Human whole blood assay (calcimycin-stimulated LTB4 synthesis); type: cell-based; settings: Homo sapiens; read-out: Human Whole Blood LTB4 Assay for FLAP (IC50 nM)
Summary of the method: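 LTB4 levels in plasma were measured by antibody-based HTRF after heparinized human whole blood, pretreated with compound (15 min, 37° C), was challenged with 20 μM calcimycin for 30 min at 37° C.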

[2] = target: T1, recombinant human FLAP protein (Homo sapiens, UniProt P20292); assay: FLAP binding assay (Scintillation Proximity Assay, displacement of [125I]L-691,831); settings: read-out: Human FLAP SPA Binding (IC50 nM)
T1 construct: made in house; host or cells: Sf9 insect cells (membrane fraction, 100,000 x g pellet)
T1 sequence (P20292 1-161): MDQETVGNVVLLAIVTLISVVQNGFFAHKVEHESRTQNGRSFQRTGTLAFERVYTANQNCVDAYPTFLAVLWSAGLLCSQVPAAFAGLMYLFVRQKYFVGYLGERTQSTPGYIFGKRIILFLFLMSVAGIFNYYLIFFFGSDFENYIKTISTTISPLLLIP
Summary of the method: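 Scintillation proximity displacement format: 0.08 nM iodinated MK-591 analog [125I]L-691,831 competes with test compound for human FLAP in sf9 insect-cell membranes (5 μg/well, WGA beads), 2 h with shaking, pH 7.5 Tris buffer. 10 μM cold L-691,831 defines non-specific binding.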

| Structure (SMILES) | IC50 [1] | IC50 [2] |
| --- | --- | --- |
| CC(C)C(C)(c1ccc(-c2cnc(N)nc2)cc1)c1c[nH]c2c(C(=O)N(C)CCO)cccc12 (centres unmarked) [Example 99, 3-[1-[4-(2-aminopyrimidin-5-yl)phenyl]-1,2-dimethyl-propyl]-N-(2-hydroxyethyl)-N-methyl-1H-indole-7-carboxamide] | 1600 nM | 0.93 nM |
| COc1cncc(-c2ccc(C(c3ncc(-c4cnc(N)nc4)s3)C(C)C)cc2)c1 (centres unmarked) [Example 100] | 2100 nM | 18 nM |
| CC(C)C(C)(c1ccc(-c2cnc(N)nc2)cc1)c1nc(-c2cccnc2)no1 (centres unmarked) [Example 101, 5-(4-{3-methyl-2-[3-(pyridin-3-yl)-1,2,4-oxadiazol-5-yl]butan-2-yl}phenyl)pyrimidin-2-amine] | 1400 nM | 12 nM |
| Nc1ncc(-c2ccc(C3(c4nnc(-c5cccnc5)[nH]4)CCC3)cc2)cn1 [Example 102, 5-(4-{1-[5-(pyridin-3-yl)-4H-1,2,4-triazol-3-yl]cyclobutyl}phenyl)pyrimidin-2-amine] | 900 nM | 3.7 nM |
| Nc1ncc(-c2ccc(C3(c4c[nH]c5ncccc45)CCC3)cc2)cn1 [Example 103, 5-{4-[1-(1H-pyrrolo[2,3-b]pyridin-3-yl)cyclobutyl]phenyl}pyrimidin-2-amine] | 160 nM | 2.5 nM |
| CC(C)C(C)(c1ccc(-c2cnc(N)nc2)cc1)c1nc2ccccc2[nH]1 (centres unmarked) [Example 104, 5-{4-[2-(1H-benzimidazol-2-yl)-3-methylbutan-2-yl]phenyl}pyrimidin-2-amine] | 1900 nM | 8.6 nM |
| CN(CCO)C(=O)c1ccc2[nH]cc(C3(c4ccc(-c5cnc(N)nc5)cc4)CCC3)c2c1 [Example 105, 3-{1-[4-(2-aminopyrimidin-5-yl)phenyl]cyclobutyl}-N-(2-hydroxyethyl)-N-methyl-1H-indole-5-carboxamide] | > 5000 nM | 91 nM |
| Nc1ncc(-c2ccc(C3(c4c[nH]c5cc(C(=O)N6CCC(O)C6)ccc45)CCC3)cc2)cn1 (centres unmarked) [Example 106, (3-{1-[4-(2-aminopyrimidin-5-yl)phenyl]cyclobutyl}-1H-indol-6-yl)(3-hydroxypyrrolidin-1-yl)methanone] | 4100 nM | 0.91 nM |
| Nc1ncc(-c2ccc(C3(c4c[nH]c5c(C(=O)N6CCC(O)C6)cccc45)CCC3)cc2)cn1 (centres unmarked) [Example 107, (3-{1-[4-(2-aminopyrimidin-5-yl)phenyl]cyclobutyl}-1H-indol-7-yl)(3-hydroxypyrrolidin-1-yl)methanone] | 180 nM | 1.2 nM |
| Nc1ncc(-c2ccc(C3(c4c[nH]c5cccnc45)CCC3)cc2)cn1 [Example 108, 5-{4-[1-(1H-pyrrolo[3,2-b]pyridin-3-yl)cyclobutyl]phenyl}pyrimidin-2-amine] | 360 nM | 3 nM |
| Nc1ncc(-c2ccc(C3(c4c[nH]c5cnccc45)CCC3)cc2)cn1 [Example 109, 5-{4-[1-(1H-pyrrolo[2,3-c]pyridin-3-yl)cyclobutyl]phenyl}pyrimidin-2-amine] | 71 nM | 1.3 nM |
| Nc1ncc(-c2ccc(C3(c4c[nH]c5ccncc45)CCC3)cc2)cn1 [Example 110, 5-{4-[1-(1H-pyrrolo[3,2-c]pyridin-3-yl)cyclobutyl]phenyl}pyrimidin-2-amine] | 1500 nM | 87 nM |
| Nc1ncc(-c2ccc(C3(c4cn(CCO)c5ccccc45)CCC3)cc2)cn1 [Example 111, 2-(3-{1-[4-(2-aminopyrimidin-5-yl)phenyl]cyclobutyl}-1H-indol-1-yl)ethanol] | > 5000 nM | 1.5 nM |
| CC(C)C(C)(c1ccc(-c2cnc(N)nc2)cc1)c1nc2ccccc2o1 (centres unmarked) [Example 112, 5-{4-[2-(1,3-benzoxazol-2-yl)-3-methylbutan-2-yl]phenyl}pyrimidin-2-amine] | 570 nM | 3.2 nM |
| Nc1ncc(-c2ccc(C3(c4c[nH]c5c(C(=O)N6CC(O)C6)cccc45)CCC3)cc2)cn1 [Example 113, (3-{1-[4-(2-aminopyrimidin-5-yl)phenyl]cyclobutyl}-1H-indol-7-yl)(3-hydroxyazetidin-1-yl)methanone] | 100 nM | 1.1 nM |
| Nc1ncc(-c2ccc(C3(c4c[nH]c5c(C(=O)N6CCS(=O)(=O)CC6)cccc45)CCC3)cc2)cn1 [Example 114] | 380 nM | 2.3 nM |
| CN(CCO)C(=O)c1cccc2c(C3(c4ccc(-c5cnc(N)nc5)cc4)CCC3)c[nH]c12 [Example 115, 3-{1-[4-(2-aminopyrimidin-5-yl)phenyl]cyclobutyl}-N-(2-hydroxyethyl)-N-methyl-1H-indole-7-carboxamide] | 1100 nM | 2.6 nM |

| Structure (SMILES) | IC50 [1] | IC50 [2] |
| --- | --- | --- |
| COCCN(C)C(=O)c1cccc2c(C3(c4ccc(-c5cnc(N)nc5)cc4)CCC3)c[nH]c12 [Example 116, 3-{1-[4-(2-aminopyrimidin-5-yl)phenyl]cyclobutyl}-N-(2-methoxyethyl)-N-methyl-1H-indole-7-carboxamide] | 270 nM | 2.5 nM |
| NC(=O)c1cccc2c(C3(c4ccc(-c5cnc(N)nc5)cc4)CCC3)c[nH]c12 [Example 117, 3-{1-[4-(2-aminopyrimidin-5-yl)phenyl]cyclobutyl}-1H-indole-7-carboxamide] | 30 nM | 1.1 nM |
| Nc1ncc(-c2ccc(C3(c4c[nH]c5ccccc45)CCC3)cc2)cc1CO [Example 118, [2-amino-5-[4-[1-(1H-indol-3-yl)cyclobutyl]phenyl]-3-pyridyl]methanol] | 69 nM | 1.6 nM |
| Nc1ncc(-c2ccc(C3(c4c[nH]c5c(C(=O)NCCO)cccc45)CCC3)cc2)cn1 [Example 119, 3-{1-[4-(2-aminopyrimidin-5-yl)phenyl]cyclobutyl}-N-(2-hydroxyethyl)-1H-indole-7-carboxamide] | 170 nM | 1.5 nM |
| Nc1ncc(-c2ccc(C3(c4cn(CCOCCO)c5ccccc45)CCC3)cc2)cn1 [Example 120, 2-[2-(3-{1-[4-(2-aminopyrimidin-5-yl)phenyl]cyclobutyl}-1H-indol-1-yl)ethoxy]ethanol] | > 5000 nM | 4.7 nM |
| Nc1ncc(-c2ccc(C3(c4nnc(-c5ccccc5)[nH]4)CCC3)cn2)cn1 [Example 121, 5-{5-[1-(5-phenyl-4H-1,2,4-triazol-3-yl)cyclobutyl]pyridin-2-yl}pyrimidin-2-amine] | 810 nM | 8.7 nM |
| Cn1cc(C(c2ccc(-c3cnc(N)nc3)nc2)C(C)(C)C)c2ccccc21 (centres unmarked) [Example 122, 5-{5-[2,2-dimethyl-1-(1-methyl-1H-indol-3-yl)propyl]pyridin-2-yl}pyrimidin-2-amine] | > 5000 nM | 75 nM |
| COC(=O)Cn1cc(C2(c3ccc(-c4cnc(N)nc4)cc3)CCC2)c2ccccc21 [Example 123, methyl (3-{1-[4-(2-aminopyrimidin-5-yl)phenyl]cyclobutyl}-1H-indol-1-yl)-acetate] | > 5000 nM | 7.9 nM |
| Nc1ncc(-c2ccc(C3(c4cn(CC(=O)O)c5ccccc45)CCC3)cc2)cn1 [Example 124, (3-{1-[4-(2-aminopyrimidin-5-yl)phenyl]cyclobutyl}-1H-indol-1-yl)acetic acid] | > 5000 nM | 5.5 nM |
| Nc1ncc(-c2ccc(C3(c4nc5ncccc5[nH]4)CCC3)cc2)cn1 [Example 125, 5-{4-[1-(1H-imidazo[4,5-b]pyridin-2-yl)cyclobutyl]phenyl}pyrimidin-2-amine] | 3400 nM | 250 nM |
| Nc1ncc(-c2ccc(C3(c4nc5cnccc5[nH]4)CCC3)cc2)cn1 [Example 126, 5-{4-[1-(1H-imidazo[4,5-c]pyridin-2-yl)cyclobutyl]phenyl}pyrimidin-2-amine] | 1800 nM | 71 nM |
| Nc1ncc(-c2ccc(C3(c4nc5ccccc5o4)CCC3)cc2)cn1 [Example 127, 5-{4-[1-(1,3-benzoxazol-2-yl)cyclobutyl]phenyl}pyrimidin-2-amine] | 1900 nM | 7.2 nM |
| Nc1ncc(-c2ccc(C3(c4nc5ccccc5s4)CCC3)cc2)cn1 [Example 128, 5-{4-[1-(1,3-benzothiazol-2-yl)cyclobutyl]phenyl}pyrimidin-2-amine] | 2300 nM | 8.1 nM |
| Cc1ccc(-c2nnc(C3(c4ccc(-c5cnc(N)nc5)cc4)CCC3)[nH]2)cn1 [Example 129, 5-(4-{1-[5-(6-methylpyridin-3-yl)-4H-1,2,4-triazol-3-yl]cyclobutyl}phenyl)pyrimidin-2-amine] | 4000 nM | 7.6 nM |
| c1cnc2[nH]cc(C3(c4ccc(-c5cnc6[nH]ccc6c5)cc4)CCC3)c2c1 [Example 130, 3-{1-[4-(1H-pyrrolo[2,3-b]pyridin-5-yl)phenyl]cyclobutyl}-1H-pyrrolo[2,3-b]pyridine] | 140 nM | 1.5 nM |
| Cc1ccc(-c2nnc(C3(c4ccc(-c5cnc(N)nc5)cc4)CCC3)s2)cn1 [Example 131, 5-(4-{1-[5-(6-methylpyridin-3-yl)-1,3,4-thiadiazol-2-yl]cyclobutyl}phenyl)pyrimidin-2-amine] | 920 nM | 5.5 nM |
| CN(CCO)C(=O)Cn1cc(C2(c3ccc(-c4cnc(N)nc4)cc3)CCC2)c2ccccc21 [Example 132, 2-(3-{1-[4-(2-aminopyrimidin-5-yl)phenyl]cyclobutyl}-1H-indol-1-yl)-N-(2-hydroxyethyl)-N-methylacetamide] | > 5000 nM | 7.2 nM |

From patent US9174980B2, “Heterocyclic compounds as inhibitors of leukotriene production” (Boehringer Ingelheim International GmbH, priority 2012, dated 2015)
